Columns and labels:
[1] = target: T1, Muscarinic acetylcholine receptor M4 (Homo sapiens) (UniProt P08173); test: M4 (h) Eurofins-Cerep Cellular and Nuclear Receptor Functional Assays; details: Compound concentration 10.0 uM
T1 sequence (whole entry): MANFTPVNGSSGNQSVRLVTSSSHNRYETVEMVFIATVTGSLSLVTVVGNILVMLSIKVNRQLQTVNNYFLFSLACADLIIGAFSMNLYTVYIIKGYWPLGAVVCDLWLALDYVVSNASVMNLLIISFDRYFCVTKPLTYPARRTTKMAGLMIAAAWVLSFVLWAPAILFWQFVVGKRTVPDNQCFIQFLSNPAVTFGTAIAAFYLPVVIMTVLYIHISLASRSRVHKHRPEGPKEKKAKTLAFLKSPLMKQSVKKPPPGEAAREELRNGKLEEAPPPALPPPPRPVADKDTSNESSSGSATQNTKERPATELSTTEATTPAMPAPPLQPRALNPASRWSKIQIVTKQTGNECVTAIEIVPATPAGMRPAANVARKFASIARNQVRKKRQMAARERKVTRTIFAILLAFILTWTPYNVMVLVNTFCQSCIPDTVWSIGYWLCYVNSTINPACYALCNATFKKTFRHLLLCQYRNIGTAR

[2] = system: Tyrosine-protein kinase ABL1 (Homo sapiens), P00519 [F317I]; details: Compound concentration 1000.0 nM
[3] = system: Tyrosine-protein kinase ABL1 (Homo sapiens), P00519 [Q252H]; details: Compound concentration 1000.0 nM
[4] = target: Mitotic checkpoint serine/threonine-protein kinase BUB1 (Homo sapiens) (UniProt O43683); details: Compound concentration 1000.0 nM
[5] = target: Cyclin-dependent kinase 2 (Homo sapiens) (UniProt P24941); details: Compound concentration 1000.0 nM
[6] = target: Dual specificity protein kinase CLK4 (Homo sapiens) (UniProt Q9HAZ1); details: Compound concentration 1000.0 nM
[7] = system: Epidermal growth factor receptor (Homo sapiens), P00533 [UNDEFINED MUTATION]; details: Compound concentration 1000.0 nM
[8] = target: Receptor tyrosine-protein kinase erbB-2 (Homo sapiens) (UniProt P04626); details: Compound concentration 1000.0 nM
[9] = target: Fibroblast growth factor receptor 2 (Homo sapiens) (UniProt P21802); details: Compound concentration 1000.0 nM
[10] = system: Receptor-type tyrosine-protein kinase FLT3 (Homo sapiens), P36888 [N841I]; details: Compound concentration 1000.0 nM
[11] = target: Cyclin-G-associated kinase (Homo sapiens) (UniProt O14976); details: Compound concentration 1000.0 nM
[12] = target: Mitogen-activated protein kinase 8 (Homo sapiens) (UniProt P45983); details: Compound concentration 1000.0 nM
[13] = target: Mitogen-activated protein kinase kinase kinase 15 (Homo sapiens) (UniProt Q6ZN16); details: Compound concentration 1000.0 nM
[14] = target: Microtubule-associated serine/threonine-protein kinase 1 (Homo sapiens) (UniProt Q9Y2H9); details: Compound concentration 1000.0 nM
[15] = target: Dual specificity mitogen-activated protein kinase kinase 7 (Homo sapiens) (UniProt O14733); details: Compound concentration 1000.0 nM
[16] = target: Serine/threonine-protein kinase OSR1 (Homo sapiens) (UniProt O95747); details: Compound concentration 1000.0 nM
[17] = target: Platelet-derived growth factor receptor beta (Homo sapiens) (UniProt P09619); details: Compound concentration 1000.0 nM
[18] = system: Phosphatidylinositol 4,5-bisphosphate 3-kinase catalytic subunit alpha isoform (Homo sapiens), P42336 [E542K]; details: Compound concentration 1000.0 nM
[19] = target: Membrane-associated tyrosine- and threonine-specific cdc2-inhibitory kinase (Homo sapiens) (UniProt Q99640); details: Compound concentration 1000.0 nM
[20] = target: Serine/threonine-protein kinase PLK2 (Homo sapiens) (UniProt Q9NYY3); details: Compound concentration 1000.0 nM
[21] = target: Serine/threonine-protein kinase D3 (Homo sapiens) (UniProt O94806); details: Compound concentration 1000.0 nM
[22] = target: cGMP-dependent protein kinase 2 (Homo sapiens) (UniProt Q13237); details: Compound concentration 1000.0 nM
[23] = system: Proto-oncogene tyrosine-protein kinase receptor Ret (Homo sapiens), P07949 [V804L]; details: Compound concentration 1000.0 nM
[24] = target: Receptor-interacting serine/threonine-protein kinase 2 (Homo sapiens) (UniProt O43353); details: Compound concentration 1000.0 nM
[25] = target: Uncharacterized serine/threonine-protein kinase SBK3 (Homo sapiens) (UniProt P0C264); details: Compound concentration 1000.0 nM
[26] = target: SRSF protein kinase 2 (Homo sapiens) (UniProt P78362); details: Compound concentration 1000.0 nM
[27] = target: Transient receptor potential cation channel subfamily M member 6 (Homo sapiens) (UniProt Q9BX84); details: Compound concentration 1000.0 nM
[28] = target: Muscarinic acetylcholine receptor M3 (Homo sapiens) (UniProt P20309); details: Compound concentration 10.0 uM
[29] = target: Muscarinic acetylcholine receptor M5 (Homo sapiens) (UniProt P08912); details: Compound concentration 10.0 uM
[30] = target: T2, Alpha-1D adrenergic receptor (Homo sapiens) (UniProt P25100); details: Compound concentration 10.0 uM
T2 sequence (whole entry): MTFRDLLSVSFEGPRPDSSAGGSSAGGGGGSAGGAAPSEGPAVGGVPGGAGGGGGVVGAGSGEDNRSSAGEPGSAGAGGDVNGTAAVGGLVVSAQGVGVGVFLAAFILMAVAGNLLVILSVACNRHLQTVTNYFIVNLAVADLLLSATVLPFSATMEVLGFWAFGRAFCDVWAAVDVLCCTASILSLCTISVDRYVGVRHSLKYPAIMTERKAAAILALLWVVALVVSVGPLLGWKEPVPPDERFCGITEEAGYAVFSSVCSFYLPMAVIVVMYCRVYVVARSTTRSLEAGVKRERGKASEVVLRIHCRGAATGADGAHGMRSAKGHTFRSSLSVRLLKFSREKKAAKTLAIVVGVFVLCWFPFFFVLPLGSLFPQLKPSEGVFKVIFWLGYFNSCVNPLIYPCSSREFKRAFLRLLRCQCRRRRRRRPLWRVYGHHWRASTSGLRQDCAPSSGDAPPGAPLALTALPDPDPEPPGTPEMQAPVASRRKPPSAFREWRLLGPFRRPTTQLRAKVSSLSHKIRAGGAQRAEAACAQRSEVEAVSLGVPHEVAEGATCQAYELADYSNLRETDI

Chain of Microtubule-associated serine/threonine-protein kinase 1 (Homo sapiens) (Q9Y2H9 whole entry, looked up): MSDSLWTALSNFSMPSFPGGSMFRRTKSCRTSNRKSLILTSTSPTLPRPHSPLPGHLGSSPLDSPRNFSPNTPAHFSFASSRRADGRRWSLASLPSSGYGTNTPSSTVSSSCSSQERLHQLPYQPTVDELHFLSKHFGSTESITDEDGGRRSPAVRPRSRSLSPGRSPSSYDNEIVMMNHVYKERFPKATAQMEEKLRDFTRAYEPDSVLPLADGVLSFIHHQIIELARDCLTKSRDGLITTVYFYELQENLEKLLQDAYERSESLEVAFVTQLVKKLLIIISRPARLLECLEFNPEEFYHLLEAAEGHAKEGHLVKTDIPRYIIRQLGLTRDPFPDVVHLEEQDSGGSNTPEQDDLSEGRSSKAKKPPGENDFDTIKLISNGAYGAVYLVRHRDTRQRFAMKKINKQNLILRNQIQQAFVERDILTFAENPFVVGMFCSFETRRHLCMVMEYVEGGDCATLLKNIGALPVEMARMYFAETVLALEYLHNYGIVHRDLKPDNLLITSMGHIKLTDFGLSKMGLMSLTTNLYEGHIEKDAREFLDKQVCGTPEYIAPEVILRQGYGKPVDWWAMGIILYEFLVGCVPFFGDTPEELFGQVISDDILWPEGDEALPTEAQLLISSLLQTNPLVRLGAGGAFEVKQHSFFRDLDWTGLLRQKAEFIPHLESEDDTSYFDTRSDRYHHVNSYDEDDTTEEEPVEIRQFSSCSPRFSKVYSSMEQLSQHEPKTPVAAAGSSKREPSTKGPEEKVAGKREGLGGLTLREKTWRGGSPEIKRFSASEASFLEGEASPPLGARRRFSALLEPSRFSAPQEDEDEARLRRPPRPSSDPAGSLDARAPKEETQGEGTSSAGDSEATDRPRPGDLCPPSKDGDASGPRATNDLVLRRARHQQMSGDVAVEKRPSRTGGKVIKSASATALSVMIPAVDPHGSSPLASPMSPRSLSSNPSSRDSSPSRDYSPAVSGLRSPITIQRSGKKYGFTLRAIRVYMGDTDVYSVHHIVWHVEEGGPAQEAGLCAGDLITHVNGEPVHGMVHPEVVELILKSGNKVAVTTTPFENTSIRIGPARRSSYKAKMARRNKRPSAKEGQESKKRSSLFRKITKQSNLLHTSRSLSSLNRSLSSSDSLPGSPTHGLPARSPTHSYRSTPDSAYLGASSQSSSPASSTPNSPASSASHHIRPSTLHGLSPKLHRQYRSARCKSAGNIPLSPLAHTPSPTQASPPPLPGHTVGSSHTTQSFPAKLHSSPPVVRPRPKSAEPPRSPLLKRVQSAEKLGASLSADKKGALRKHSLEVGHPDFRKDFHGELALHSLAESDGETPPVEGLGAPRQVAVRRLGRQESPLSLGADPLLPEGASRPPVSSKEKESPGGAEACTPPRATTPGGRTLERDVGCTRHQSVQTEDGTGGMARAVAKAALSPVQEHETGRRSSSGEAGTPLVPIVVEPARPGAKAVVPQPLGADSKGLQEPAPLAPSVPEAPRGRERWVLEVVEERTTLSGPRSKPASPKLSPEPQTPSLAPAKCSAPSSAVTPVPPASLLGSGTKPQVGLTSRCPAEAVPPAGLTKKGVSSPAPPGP
Chain of Serine/threonine-protein kinase PLK2 (Homo sapiens) (Q9NYY3 whole entry, looked up): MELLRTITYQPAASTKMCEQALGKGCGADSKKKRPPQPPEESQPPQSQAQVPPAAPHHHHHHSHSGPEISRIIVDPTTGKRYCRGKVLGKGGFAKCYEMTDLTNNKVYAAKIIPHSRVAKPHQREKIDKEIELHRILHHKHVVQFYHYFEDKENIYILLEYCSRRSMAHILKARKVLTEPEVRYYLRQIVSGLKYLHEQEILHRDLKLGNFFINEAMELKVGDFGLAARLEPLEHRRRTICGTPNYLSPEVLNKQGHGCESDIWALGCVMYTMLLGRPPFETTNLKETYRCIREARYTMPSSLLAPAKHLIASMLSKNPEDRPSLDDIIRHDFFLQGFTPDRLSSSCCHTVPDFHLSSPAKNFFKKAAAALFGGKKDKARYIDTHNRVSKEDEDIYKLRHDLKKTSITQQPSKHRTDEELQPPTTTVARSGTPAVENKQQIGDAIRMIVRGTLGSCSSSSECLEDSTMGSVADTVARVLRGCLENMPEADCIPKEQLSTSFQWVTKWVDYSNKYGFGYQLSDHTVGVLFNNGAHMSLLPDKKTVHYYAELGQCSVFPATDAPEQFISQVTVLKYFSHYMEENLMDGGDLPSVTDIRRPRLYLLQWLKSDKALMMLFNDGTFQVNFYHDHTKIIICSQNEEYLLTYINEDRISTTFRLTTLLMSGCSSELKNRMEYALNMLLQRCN
Chain of Serine/threonine-protein kinase OSR1 (Homo sapiens) (O95747 2-527 limits assumed): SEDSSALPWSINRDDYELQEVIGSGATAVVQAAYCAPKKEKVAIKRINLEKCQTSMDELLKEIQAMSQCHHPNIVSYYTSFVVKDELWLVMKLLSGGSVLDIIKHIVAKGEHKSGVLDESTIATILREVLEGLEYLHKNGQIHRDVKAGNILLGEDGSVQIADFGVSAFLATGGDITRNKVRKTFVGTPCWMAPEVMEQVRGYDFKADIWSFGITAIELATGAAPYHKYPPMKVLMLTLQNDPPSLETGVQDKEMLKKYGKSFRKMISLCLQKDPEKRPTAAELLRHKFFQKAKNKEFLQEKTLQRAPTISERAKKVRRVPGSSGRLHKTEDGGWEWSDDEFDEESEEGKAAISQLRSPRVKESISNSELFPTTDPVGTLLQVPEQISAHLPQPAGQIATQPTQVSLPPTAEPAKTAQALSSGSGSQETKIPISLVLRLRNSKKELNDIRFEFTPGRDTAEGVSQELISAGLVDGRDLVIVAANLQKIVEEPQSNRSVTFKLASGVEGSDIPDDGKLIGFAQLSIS
Chain of Epidermal growth factor receptor (Homo sapiens), P00533 [UNDEFINED MUTATION] (P00533 whole entry, looked up, change not shown): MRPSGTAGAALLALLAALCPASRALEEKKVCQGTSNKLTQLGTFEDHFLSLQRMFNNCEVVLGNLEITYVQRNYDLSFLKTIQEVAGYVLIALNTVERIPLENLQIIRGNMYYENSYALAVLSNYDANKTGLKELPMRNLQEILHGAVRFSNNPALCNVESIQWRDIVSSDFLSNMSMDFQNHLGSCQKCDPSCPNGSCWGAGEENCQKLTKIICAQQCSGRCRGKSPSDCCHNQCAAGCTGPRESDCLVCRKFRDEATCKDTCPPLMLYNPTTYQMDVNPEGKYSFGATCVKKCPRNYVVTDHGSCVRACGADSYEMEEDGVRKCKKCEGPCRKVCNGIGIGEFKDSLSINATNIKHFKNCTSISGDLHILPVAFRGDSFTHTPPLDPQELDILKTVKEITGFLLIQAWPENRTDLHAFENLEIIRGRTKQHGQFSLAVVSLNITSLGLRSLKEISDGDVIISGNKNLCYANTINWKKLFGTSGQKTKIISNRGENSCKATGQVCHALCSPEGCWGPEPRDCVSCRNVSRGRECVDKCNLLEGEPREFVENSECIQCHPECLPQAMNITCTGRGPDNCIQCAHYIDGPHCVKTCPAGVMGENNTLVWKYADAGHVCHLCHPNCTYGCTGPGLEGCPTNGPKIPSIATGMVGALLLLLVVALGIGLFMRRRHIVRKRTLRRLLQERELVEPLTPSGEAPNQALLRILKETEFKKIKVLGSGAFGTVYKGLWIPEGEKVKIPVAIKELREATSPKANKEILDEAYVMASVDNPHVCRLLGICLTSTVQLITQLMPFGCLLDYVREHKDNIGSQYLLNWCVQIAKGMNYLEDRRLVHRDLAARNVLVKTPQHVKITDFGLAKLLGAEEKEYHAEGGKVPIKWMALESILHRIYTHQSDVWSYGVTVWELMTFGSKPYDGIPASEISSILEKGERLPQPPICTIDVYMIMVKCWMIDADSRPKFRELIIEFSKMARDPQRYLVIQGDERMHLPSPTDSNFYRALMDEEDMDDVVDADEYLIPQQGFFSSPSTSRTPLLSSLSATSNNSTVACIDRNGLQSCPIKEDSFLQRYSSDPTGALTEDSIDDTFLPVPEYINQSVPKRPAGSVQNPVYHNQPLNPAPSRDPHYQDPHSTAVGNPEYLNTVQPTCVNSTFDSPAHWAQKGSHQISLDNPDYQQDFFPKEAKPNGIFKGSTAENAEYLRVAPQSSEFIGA
Chain of cGMP-dependent protein kinase 2 (Homo sapiens) (Q13237 whole entry): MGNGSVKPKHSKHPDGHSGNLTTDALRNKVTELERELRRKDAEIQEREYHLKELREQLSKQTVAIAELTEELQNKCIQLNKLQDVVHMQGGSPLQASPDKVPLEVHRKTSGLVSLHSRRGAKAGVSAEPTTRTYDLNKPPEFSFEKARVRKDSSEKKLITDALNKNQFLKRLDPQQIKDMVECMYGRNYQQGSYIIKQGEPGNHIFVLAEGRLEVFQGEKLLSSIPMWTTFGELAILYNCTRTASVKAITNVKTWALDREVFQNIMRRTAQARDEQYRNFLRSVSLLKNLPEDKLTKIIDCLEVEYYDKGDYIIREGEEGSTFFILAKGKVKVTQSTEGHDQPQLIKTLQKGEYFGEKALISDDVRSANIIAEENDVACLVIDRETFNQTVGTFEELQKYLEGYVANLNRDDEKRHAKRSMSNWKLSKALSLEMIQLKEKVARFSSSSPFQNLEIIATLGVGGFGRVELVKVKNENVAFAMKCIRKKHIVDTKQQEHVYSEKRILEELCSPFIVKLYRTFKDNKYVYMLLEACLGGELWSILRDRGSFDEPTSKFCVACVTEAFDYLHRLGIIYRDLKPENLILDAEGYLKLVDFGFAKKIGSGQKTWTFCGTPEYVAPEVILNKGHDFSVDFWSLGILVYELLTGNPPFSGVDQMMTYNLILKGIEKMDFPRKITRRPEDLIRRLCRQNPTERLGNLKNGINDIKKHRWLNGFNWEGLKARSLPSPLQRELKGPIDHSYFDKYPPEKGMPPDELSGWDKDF

SMILES | % Inhibition of Control Agonist Response (Mean n=2) [1] [%] | % of Control Agonist Response (Mean n=2) [1] [%] | residual activity [2] [%] | residual activity [3] [%] | residual activity [4] [%] | residual activity [5] [%] | residual activity [6] [%] | residual activity [7] [%] | residual activity [8] [%] | residual activity [9] [%] | residual activity [10] [%] | residual activity [11] [%] | residual activity [12] [%] | residual activity [13] [%] | residual activity [14] [%] | residual activity [15] [%] | residual activity [16] [%] | residual activity [17] [%] | residual activity [18] [%] | residual activity [19] [%] | other results
O=C(N1CCS(=O)(=O)CC1)N1C[C@H](c2ccc(OC(F)(F)F)cc2)C[C@H](c2nc(C3CC3)no2)C1 [BAY-386] | 5.8 | -15 | 80 | 100 | 100 | 100 | 100 | 100 | 100 | 94 | 100 | 100 | 82 | 100 | 100 | 100 | 100 | 100 | 88 | 100 | residual activity [20]: 100%; residual activity [21]: 100%; residual activity [22]: 100%; residual activity [23]: 99%; residual activity [24]: 90%; residual activity [25]: 98%; residual activity [26]: 100%; residual activity [27]: 100%; inhibition [28]: -2.11%; inhibition [29]: 4.1%; inhibition [30]: 2.45%
Cc1noc([C@H]2C[C@@H](c3ccc(C(F)(F)F)cc3)CN(C(=O)N3CCS(=O)(=O)C3)C2)n1 [BAY-448] | 1.9 | 25.1 | 100 | 100 | 100 | 100 | 83 | 78 | 100 | 85 | 100 | 97 | 77 | 100 | 100 | 100 | 89 | 100 | 71 | 100 | residual activity [20]: 100%; residual activity [21]: 100%; residual activity [22]: 100%; residual activity [23]: 100%; residual activity [24]: 100%; residual activity [25]: 84%; residual activity [26]: 100%; residual activity [27]: 100%; inhibition [28]: -1.45%; inhibition [29]: -1.71%; inhibition [30]: -1.84%

— ChEMBL document CHEMBL4507269, “Data for DCP probe BAY-386” (2021)
